How the values were obtained:
Assay in all cases: relative viability (nuclei count vs DMSO), 5 days (fraction); higher = more cells survive
Carfilzomib + Crizotinib = compound: CC(C)C[C@H](NC(=O)[C@H](CCc1ccccc1)NC(=O)CN1CCOCC1)C(=O)N[C@@H](Cc1ccccc1)C(=O)N[C@@H](CC(C)C)C(=O)[C@@]1(C)CO1 [Carfilzomib] + C[C@@H](Oc1cc(-c2cnn(C3CCNCC3)c2)cnc1N)c1c(Cl)ccc(F)c1Cl [Crizotinib] (partner 1 µM)
Procedure, shortened: (§1)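 One day after seeding in 1536-well plates, lung cancer cell lines were dosed by pin tool. Dosing was either single-drug or a fixed anchor-drug dose plus five library-drug doses (not always all listed) in √10 steps. After 5 days, nuclei were stained in one fix-and-stain step and counted on 4× images, and relative viability is the nuclei count of treated wells over that of vehicle wells, given as the median of duplicate plates.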

Crizotinib + Luminespib = compound: C[C@@H](Oc1cc(-c2cnn(C3CCNCC3)c2)cnc1N)c1c(Cl)ccc(F)c1Cl [Crizotinib] + CCNC(=O)c1noc(-c2cc(C(C)C)c(O)cc2O)c1-c1ccc(CN2CCOCC2)cc1 [Luminespib] (partner 0.01 µM)
Procedure, shortened: as §1

Olaparib + Bortezomib = compound: O=C(c1cc(Cc2n[nH]c(=O)c3ccccc23)ccc1F)N1CCN(C(=O)C2CC2)CC1 [Olaparib] + CC(C)C[C@H](NC(=O)[C@H](Cc1ccccc1)NC(=O)c1cnccn1)B(O)O [Bortezomib] (partner 0.002 µM)
Procedure, shortened: as §1

Olaparib + Tozasertib = compound: O=C(c1cc(Cc2n[nH]c(=O)c3ccccc23)ccc1F)N1CCN(C(=O)C2CC2)CC1 [Olaparib] + Cc1cc(Nc2cc(N3CCN(C)CC3)nc(Sc3ccc(NC(=O)C4CC4)cc3)n2)n[nH]1 [Tozasertib] (partner 0.1 µM)
Procedure, shortened: as §1

Cell Line | relative viability (Carfilzomib + Crizotinib; first compound 0.001 µM) | relative viability (Carfilzomib + Crizotinib; first compound 0.003162 µM) | relative viability (Carfilzomib + Crizotinib; first compound 0.01 µM) | relative viability (Carfilzomib + Crizotinib; first compound 0.03162 µM) | relative viability (Carfilzomib + Crizotinib; first compound 0.1 µM) | relative viability (Crizotinib + Luminespib; first compound 0.01 µM) | relative viability (Crizotinib + Luminespib; first compound 0.03162 µM) | relative viability (Crizotinib + Luminespib; first compound 0.1 µM) | relative viability (Crizotinib + Luminespib; first compound 1 µM) | relative viability (Olaparib + Bortezomib; first compound 0.08 µM) | relative viability (Olaparib + Bortezomib; first compound 0.253 µM) | relative viability (Olaparib + Bortezomib; first compound 2.53 µM) | relative viability (Olaparib + Bortezomib; first compound 8 µM) | relative viability (Olaparib + Tozasertib; first compound 0.08 µM) | relative viability (Olaparib + Tozasertib; first compound 0.253 µM) | relative viability (Olaparib + Tozasertib; first compound 2.53 µM) | relative viability (Olaparib + Tozasertib; first compound 8 µM) | relative viability (Crizotinib + Luminespib; first compound 0.3162 µM)
NCI-H1915 | 0.879 | 0.927 | 0.887 | 0.434 | 0.069 | 0.775 | 0.817 | 0.721 | 0.862 | 0.957 | 0.758 | 0.792 | 0.645 | 0.447 | 0.372 | 0.368 | 0.274 | 
NCI-H1975 | 0.944 | 0.951 | 0.536 | 0.116 | 0.131 | 0.144 | 0.148 | 0.167 | 0.178 | 0.424 | 0.364 | 0.403 | 0.319 | 0.821 | 0.715 | 0.85 | 0.699 | 0.223
NCI-H1993 | 0.871 | 0.97 | 1.12 | 0.807 | 0.473 | 0.905 | 0.889 |  |  | 1.06 | 1.16 | 1.06 | 1.18 | 0.546 | 0.537 | 0.557 | 0.521 | 0.852
NCI-H2009 | 1.07 | 1.14 | 1.09 | 0.37 | 0.0428 | 0.994 | 1.02 | 0.988 | 1.08 | 1.06 | 0.953 | 0.914 | 0.638 | 0.81 | 0.678 | 0.761 | 0.648 | 1.01
NCI-H2023 | 0.666 | 0.64 | 0.733 | 0.375 | 0.0656 | 0.714 | 0.754 | 0.61 | 0.592 | 1.13 | 0.884 | 0.931 | 0.675 | 0.357 | 0.298 | 0.32 | 0.238 | 0.58
NCI-H2085 | 0.83 | 0.769 | 0.662 | 0.368 | 0.225 | 0.551 | 0.394 | 0.431 | 0.428 | 1.25 | 0.92 | 0.981 | 0.808 | 0.943 | 0.756 | 0.847 | 0.753 | 
NCI-H2087 | 0.876 | 1.03 | 0.827 | 0.0787 | 0.091 | 0.18 | 0.181 | 0.168 | 0.134 | 0.96 | 0.753 | 0.842 | 0.66 | 0.31 | 0.204 | 0.324 | 0.18 | 
NCI-H2126 | 0.98 | 1.07 | 0.989 | 1.01 | 0.707 | 0.717 | 0.886 |  | 0.916 | 1.22 | 0.994 | 1.07 | 1.08 | 0.915 | 0.794 | 0.869 | 0.83 | 0.861
NCI-H2228 | 0.49 | 0.389 | 0.666 | 0.149 | 0.17 | 0.119 | 0.16 | 0.132 | 0.119 | 1.02 | 0.821 | 1.02 | 0.661 | 0.324 | 0.207 | 0.201 | 0.136 | 0.122
NCI-H2347 | 0.798 | 0.756 | 0.596 | 0.449 | 0.35 | 0.212 | 0.458 | 0.482 | 0.404 | 1.28 | 0.715 | 0.974 | 0.676 | 0.548 | 0.48 | 0.483 | 0.54 | 0.681
NCI-H2405 | 0.807 | 0.916 | 0.866 | 0.785 | 0.175 | 0.629 | 0.706 | 0.697 | 0.806 | 1.04 | 0.914 | 1.01 | 0.934 | 0.807 | 0.722 | 0.66 | 0.654 | 0.785
NCI-H3122 | 0.3 | 0.286 | 0.259 | 0.303 | 0.274 | 0.119 | 0.0745 | 0.0793 | 0.105 | 1.01 | 0.985 | 0.993 | 0.947 | 0.466 | 0.376 | 0.457 | 0.346 | 0.0767
PC-3 [JPC-3] | 1.01 | 0.99 | 0.985 | 0.828 | 0.376 | 0.727 | 0.649 | 0.741 | 0.78 | 0.991 | 0.692 | 0.852 | 0.846 | 0.913 | 0.855 | 0.946 | 0.843 | 0.678
PC-14 | 0.939 | 0.934 | 0.9 | 0.326 | 0.0895 | 0.156 | 0.152 | 0.183 | 0.168 | 1.04 | 0.892 | 0.78 | 0.682 | 0.602 | 0.557 | 0.536 | 0.419 | 0.186
RERF-LC-KJ | 0.899 | 0.801 | 0.86 | 0.78 | 0.359 | 1.22 | 1.31 | 1.29 | 1.21 | 1.19 | 1.14 | 1.03 | 1.06 | 0.531 | 0.453 | 0.505 | 0.475 | 1.21
SK-LU-1 | 0.885 | 1.02 | 0.807 | 0.575 | 0.152 | 0.208 | 0.195 | 0.225 | 0.206 | 1.33 | 1.08 | 1.23 | 1.19 | 0.355 | 0.323 | 0.335 | 0.247 | 0.224
SW 1573 | 0.887 | 0.864 | 0.793 | 0.261 | 0.0628 | 0.132 | 0.342 | 0.253 | 0.236 | 1.03 | 0.987 | 0.769 | 0.619 | 0.148 | 0.165 | 0.234 | 0.172 | 0.405

Source: the supplement of paper PMC10307832
